Molecules are shown by their SMILES. pEC50, pIC50, pKd: −log10 of the molar value. Where two headings read alike, the source gives them in different places. Some results are limits rather than exact numbers.

For assay [1], the target named is T1, BRD4.1 (Homo sapiens, UniProt O60885). As to conditions: read-out: BRD4.1 (IC50).
Assay [2] has as its target T1, BRD4.1. As to conditions: read-out: ITC (Kd); BRD4.1, ITC at 25 C.
A further assay relates to 797. Put plainly: Cellular assay, cell viability by ATPlite, 797 cells. In kind it is cell-based. As to conditions: for pIC50: read-out: 797 IC50. Background: In ATP-based viability assays light output follows the ATP content of the culture.
The next assay concerns MV411. The assay can be described thus: Cell line IC50, MV411. The class given is cell-based.
In assay [3] the target is T2, BRD4 (Homo sapiens, UniProt O60885). The assay can be described thus: BRD4 IC50, second listed in Table 2. The class given is binding.
A further assay deals with MOLM-13. Put plainly: Cell line IC50, MOLM-13. To be noted: MOLM-13 cell line. In kind it is cell-based.
For assay [4], the target named is T2, BRD4. The assay can be described thus: BRD4 IC50, first listed in Table 2. As to conditions: first BRD4 value listed in the cell. The class given is binding.
A further assay deals with TF-1. The assay can be described thus: Cell line IC50, TF-1. The class given is cell-based. To be noted: TF-1 cell line.
Another assay concerns the target BRDT (Homo sapiens, UniProt Q58F21). Put plainly: BRDT IC50, Table 2. The class given is binding.
The target in the next assay is PLK1 (Homo sapiens, UniProt P53350). Put plainly: PLK1 kinase IC50, Table 2. The class given is biochemical.
The test system of the next assay is Kasumi-1. Put plainly: Cell line IC50, Kasumi-1. The class given is cell-based. As to conditions: Kasumi-1 cell line.
The next assay has as its system NOMO1. Put plainly: Cell line IC50, NOMO1. In kind it is cell-based.
The next assay has as its target T3, AURKA (Homo sapiens, UniProt O14965).
T3 sequence (O14965 1-403): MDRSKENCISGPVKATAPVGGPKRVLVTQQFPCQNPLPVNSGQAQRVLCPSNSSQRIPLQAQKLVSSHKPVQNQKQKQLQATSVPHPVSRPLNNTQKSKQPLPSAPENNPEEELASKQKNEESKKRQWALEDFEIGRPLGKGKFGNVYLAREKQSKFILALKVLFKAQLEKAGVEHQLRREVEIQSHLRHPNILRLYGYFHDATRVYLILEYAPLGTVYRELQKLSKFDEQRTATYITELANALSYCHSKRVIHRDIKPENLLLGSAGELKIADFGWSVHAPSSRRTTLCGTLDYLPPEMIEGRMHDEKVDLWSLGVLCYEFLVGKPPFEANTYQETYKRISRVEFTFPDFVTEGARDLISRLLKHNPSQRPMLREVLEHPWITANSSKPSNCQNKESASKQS
Put plainly: AURKA kinase IC50, Table 2. In kind it is biochemical.

The next assay concerns HL60. The assay can be described thus: cells. To be noted: Homo sapiens, HL-60, read-out: HL60 (EC50, M).
The mark [5] stands for this setting: second BRD4 value listed in the cell, read-out: BRD4 IC50.
Setting [6] is: Homo sapiens, NOMO-1, NOMO1 cell line.
[7] abbreviates: Homo sapiens, NOMO1 (NOMO-1) cell line.

Sequence of PLK1 (P53350 whole entry): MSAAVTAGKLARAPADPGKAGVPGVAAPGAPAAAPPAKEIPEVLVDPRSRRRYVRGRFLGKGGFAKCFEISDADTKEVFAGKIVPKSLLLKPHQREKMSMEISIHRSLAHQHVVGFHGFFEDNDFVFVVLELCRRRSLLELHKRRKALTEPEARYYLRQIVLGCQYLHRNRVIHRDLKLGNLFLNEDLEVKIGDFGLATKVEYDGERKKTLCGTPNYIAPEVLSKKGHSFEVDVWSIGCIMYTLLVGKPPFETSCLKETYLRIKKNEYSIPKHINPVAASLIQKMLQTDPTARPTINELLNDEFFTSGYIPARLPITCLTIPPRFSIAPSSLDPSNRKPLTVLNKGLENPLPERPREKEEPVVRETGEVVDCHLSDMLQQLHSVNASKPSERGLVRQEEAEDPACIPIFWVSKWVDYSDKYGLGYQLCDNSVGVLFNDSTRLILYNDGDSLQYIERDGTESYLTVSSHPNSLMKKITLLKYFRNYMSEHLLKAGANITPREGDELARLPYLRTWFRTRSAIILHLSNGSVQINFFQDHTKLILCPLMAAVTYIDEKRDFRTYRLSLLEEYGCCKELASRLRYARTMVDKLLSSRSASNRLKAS

Regarding `CC[C@@H]1C(=O)N(C)c2cnc(Nc3ccc(C(=O)N[C@H]4CC[C@H](N5CCN(CC6CC6)CC5)CC4)cc3OC)nc2N1C(C)C`, the pIC50 (in general, the IC50 on a negative log10 scale, so that one unit is a factor of ten) on BRD4.1 [1] was 5.97. In addition, the pKd (as a rule, the Kd on a negative log10 scale, so that one unit is a factor of ten) on BRD4.1 [2] is 6.59.

As to `CC[C@@H]1C(=O)N(C)c2cnc(Oc3ccc(C(=O)NC4CCN(C)CC4)cc3OC)nc2N1C1CCCC1`, the pIC50 was 6.37 in the assay on 797 (797 cell line, Table 2); 6.50 in the assay on MV411 (Homo sapiens, MV4-11); 6.14 on BRD4 [3] (setting [5]); 5.80 with MOLM-13 (Homo sapiens); 6.38 against BRD4 [4]; 5.27 with TF-1 (Homo sapiens). Besides, the pIC50 at BRDT is 5.93; at PLK1, below 5.00; in the assay on Kasumi-1 (Homo sapiens), 5.89; with NOMO1 (setting [6]), 5.13.

`CC[C@@H]1C(=O)N(C)c2cnc(N(C)c3ccc(C(=O)NC4CCN(C)CC4)cc3OC)nc2N1C1CCCC1`: the pIC50 was 6.47 in the assay on 797 (797 cell line, Table 2); 6.70 with MV411 (Homo sapiens, MV4-11); 6.61 on BRD4 [3] (setting [5]); 6.45 in the assay on MOLM-13 (Homo sapiens); 6.89 at BRD4 [4]; 5.80 in the assay with TF-1 (Homo sapiens). Moreover, the pIC50 on BRDT was 6.44; against PLK1 it was 6.14; with Kasumi-1 (Homo sapiens), 6.47; in the assay with NOMO1 (setting [7]), 6.11.

Turning to `CC[C@@H]1C(=O)N(C)c2cnc(Nc3ccc(C(=O)NC4CCN(C)CC4)cc3OC3CCCC3)nc2N1C1CCCC1`, the pIC50 in the assay with 797 (797 cell line, Table 2) was 7.02; in the assay on MV411 (Homo sapiens, MV4-11), 7.15; on BRD4 [3] (setting [5]) it was 7.11; in the assay on MOLM-13 (Homo sapiens) it was 6.94; against BRD4 [4], 6.95; in the assay with TF-1 (Homo sapiens) it was 6.52. In addition, the pIC50 was 6.31 on BRDT, 7.72 at PLK1, 7.13 in the assay on Kasumi-1 (Homo sapiens) and 6.94 with NOMO1 (setting [7]).

Regarding `CC[C@@H]1C(=O)N(CC)c2cnc(Nc3ccc(C(=O)NC4CCN(C)CC4)cc3OC)nc2N1C1CCCC1`, the pIC50 is 6.78 with 797 (797 cell line, Table 2); 6.95 with MV411 (Homo sapiens, MV4-11); 6.26 at BRD4 [3] (setting [5]); 6.76 in the assay with MOLM-13 (Homo sapiens); 6.47 on BRD4 [4]; 6.09 with TF-1 (Homo sapiens). Besides, the pIC50 was 5.88 against BRDT, 6.62 in the assay on Kasumi-1 (Homo sapiens) and 6.63 in the assay with NOMO1 (setting [7]).

Consider `CC[C@@H]1C(=O)N(C)c2cnc(Nc3ccc(C(=O)NC4CCN(C)CC4)cc3OC3CCOCC3)nc2N1C1CCCC1`, for which the pIC50 was 7.06 in the assay on 797 (797 cell line, Table 2); 7.13 in the assay on MV411; 6.64 at BRD4 [3] (setting [5]); 6.95 with MOLM-13; 6.76 at BRD4 [4]; 5.94 in the assay on TF-1. Besides, the pIC50 at BRDT is 6.06; on PLK1 it was 7.24; with Kasumi-1, 6.74; in the assay with NOMO1 (NOMO1 (NOMO-1) cell line), 6.31.

With `CC[C@@H]1C(=O)Nc2cnc(Nc3ccc(C(=O)NC4CCN(C)CC4)cc3OC)nc2N1C1CCCC1`, the pIC50 was 6.38 in the assay on 797 (797 cell line, Table 2); 6.52 in the assay on MV411 (Homo sapiens, MV4-11); 5.20 at BRD4 [3] (setting [5]); 6.47 in the assay with MOLM-13 (Homo sapiens); 5.04 at BRD4 [4]; 5.17 in the assay on TF-1 (Homo sapiens). Besides, the pIC50 at BRDT is 4.68; against PLK1, 6.89; in the assay on Kasumi-1 (Homo sapiens) it was 5.83; in the assay on NOMO1 (setting [6]) it was 5.49.

In the case of `CC[C@@H]1C(=O)N(C)c2cnc(Nc3ccc(C(=O)NC4CCN(C)CC4)cc3)nc2N1C1CCCC1`, the negative-log IC50 (pIC50) in the assay on 797 was 8.22; against AURKA it was 5.03; with MV411 (Homo sapiens, MV4-11), 8.00; at BRD4 [3], 6.64; with MOLM-13 (Homo sapiens), 8.07; on BRD4 [4], 6.83. The pIC50 is 6.16 on BRDT, 8.39 on PLK1 and 7.54 with NOMO1 (setting [7]).

In the case of `CC[C@@H]1C(=O)N(C)c2cnc(N3CCOc4cc(C(=O)NC5CCN(C)CC5)ccc43)nc2N1C1CCCC1`, the pIC50 in the assay with 797 (797 cell line, Table 2) is 5.71; with MV411 (Homo sapiens, MV4-11) it was 6.01; on BRD4 [3] (setting [5]) it was 6.08; with MOLM-13 (Homo sapiens), 5.46; against BRD4 [4] it was 5.79; at BRDT it was 5.27. In addition, the pIC50 is 5.77 at PLK1 and 5.27 in the assay on NOMO1 (setting [7]).

On to `CC[C@@H]1C(=O)N(C)c2cnc(N3CCc4cc(C(=O)NC5CCN(C)CC5)ccc43)nc2N1C1CCCC1`, for which the pIC50 in the assay with 797 (797 cell line, Table 2) was 7.19; in the assay on MV411 (Homo sapiens, MV4-11), 7.07; at BRD4 [3] (setting [5]) it was 7.37; in the assay with MOLM-13 (Homo sapiens) it was 6.86; against BRD4 [4], 7.28; against BRDT, 6.67. For the same molecule, the pIC50 against PLK1 was 7.70; with NOMO1 (setting [7]) it was 6.61.

With `CC[C@@H]1C(=O)N(C)c2ccc(Nc3ccc(C(=O)NC4CCN(C)CC4)cc3OC)nc2N1C1CCCC1`, the pIC50 is 6.15 in the assay with 797 (797 cell line, Table 2); 6.39 with MV411 (Homo sapiens, MV4-11); 6.73 on BRD4 [3] (setting [5]); 6.07 in the assay with MOLM-13 (Homo sapiens); 6.58 on BRD4 [4]; 6.07 against BRDT. Further, the pIC50 is 5.73 against PLK1 and 5.74 in the assay on NOMO1 (setting [7]).

Take `CC[C@@H]1C(=O)N(C)c2ccc(N3CCc4cc(C(=O)NC5CCN(C)CC5)ccc43)nc2N1C1CCCC1`: the pIC50 with 797 (797 cell line, Table 2) was 6.03; in the assay with MV411 (Homo sapiens, MV4-11) it was 6.45; at BRD4 [3] (setting [5]), 6.76; in the assay with MOLM-13 (Homo sapiens) it was 6.08; against BRD4 [4], 6.40; against BRDT it was 5.98. Also, the pIC50 is below 5.00 at PLK1 and 5.76 with NOMO1 (setting [7]).

`C[C@@H]1C(=O)N(C)c2ccc(N3CCc4cc(C(=O)NC5CCN(C)CC5)ccc43)nc2N1C1CCCC1`: the pIC50 is 6.64 in the assay with 797 (797 cell line, Table 2); 6.87 in the assay with MV411 (Homo sapiens, MV4-11); 7.11 on BRD4 [3] (setting [5]); 6.48 in the assay with MOLM-13 (Homo sapiens); 6.80 at BRD4 [4]; 6.33 against BRDT. Further, the figures for the pIC50 on PLK1 and with NOMO1 (setting [7]) were below 5.00 and 6.14, respectively.

For the molecule `COc1cc(C(=O)NC2CCN(C)CC2)ccc1Nc1ncc2c(n1)N(C1CCCC1)[C@H](CC(C)C)C(=O)N2C`, the pIC50 in the assay with 797 (797 cell line, Table 2) was 6.53; in the assay on MV411 (Homo sapiens, MV4-11) it was 6.26; at BRD4 [3] (setting [5]) it was 4.73; in the assay with MOLM-13 (Homo sapiens), 6.34; at BRD4 [4] it was 4.87; at BRDT it was 4.61. In addition, the pIC50 on PLK1 is 7.11; in the assay with NOMO1 (setting [7]), 6.11.

As to `COc1cc(C(=O)NC2CCN(C)CC2)ccc1Nc1ccc2c(n1)N(C1CCCC1)[C@H](C)C(=O)N2C`, the pIC50 in the assay with 797 (797 cell line, Table 2) was 6.74; with MV411 (Homo sapiens, MV4-11), 7.68; at BRD4 [3] (setting [5]), 7.00; with MOLM-13 (Homo sapiens), 6.66; on BRD4 [4], 7.04; against BRDT, 6.60. For the same molecule, the pIC50 was below 5.00 at PLK1 and 6.28 with NOMO1 (setting [7]).

On to `Cc1sc2c(c1C)C(c1ccc(Cl)cc1)=N[C@@H](CC(=O)OC(C)(C)C)c1nnc(C)n1-2` [JQ1, reference compound], for which the pIC50 with 797 (797 cell line, Table 2) was 7.04; in the assay with MV411 it was 7.18; in the assay with MOLM-13, 7.05; in the assay with TF-1 it was 6.96; with Kasumi-1, 7.31; in the assay with NOMO1 (NOMO1 (NOMO-1) cell line), 6.76.

Turning to `CC[C@@H]1C(=O)N(C)c2cnc(Nc3ccc(C(=O)NC4CCN(C)CC4)cc3OC)nc2N1C1CCCC1` [drawing 199], the pEC50 (usually the EC50 on a negative log10 scale, so that one unit is a factor of ten) in the assay on 797 (read-out: 797 (EC50, M)) is 7.97; with HL60 it was 7.44.

Consider `CC[C@@H]1C(=O)N(C)c2cnc(Nc3ccc(C(=O)NC4CCN(C)CC4)cc3OC)nc2N1C1CCCC1` [drawing 214], for which the pIC50 is 8.30 with 797; 8.27 in the assay on MV411 (Homo sapiens, MV4-11); 8.09 with MOLM-13 (Homo sapiens); 6.11 in the assay with TF-1 (Homo sapiens); 8.00 in the assay on Kasumi-1 (Homo sapiens); 7.92 in the assay on NOMO1 (setting [7]).

Take `C[C@@H](Oc1cc(-n2cnc3ccc(CN4CCN(C)CC4)cc32)sc1C(N)=O)c1ccccc1C(F)(F)F` [reference compound]: the pIC50 was 8.10 with 797 (797 cell line, Table 2); 8.15 in the assay with MV411 (Homo sapiens, MV4-11); below 4.30 on BRD4 [4]; below 4.30 at BRDT; 8.11 in the assay with Kasumi-1 (Homo sapiens). Besides, the “TF-1 IC50” value in the assay with TF-1 (result in words) is listed as “poor convergence”.

The values above are taken from patent publication US20160347750A1, “DIHYDROPTERIDINONE DERIVATIVES AND USES THEREOF” (Dana-Farber Cancer Institute, Inc., priority 2014, published 2016).
